Reference: patent US12404304B1, “Telomerase reverse transcriptase (TERT) expression enhancing compounds and methods for using the same” (Sierra Sciences, LLC, priority 2007, dated 2025)

The molecules below were run on viable cells in culture (assay: Cell viability assay (CellTiter-Glo Luminescent Cell Viability Assay, ATP quantitation, percent of vehicle control)).

| Compound | Average Cell Viability after 24 Hours (% DMSO) |
| --- | --- |
| Cc1ccc(C(NC(=O)C(C)C)c2ccc3cccnc3c2O)cc1 (centres unmarked) [compound 1088] | 55.87 % DMSO |
| CCC(=O)NC(c1ccccc1OC)c1cc([N+](=O)[O-])c2cccnc2c1O (centres unmarked) [compound 1051] | 65.27 % DMSO |
| Cc1ccc2ccc(C(Nc3ccccn3)c3ccccc3Cl)c(O)c2n1 (centres unmarked) [compound 1480] | 79.43 % DMSO |
| CC(=O)NC(c1cccs1)c1ccc2cccnc2c1O (centres unmarked) [compound 1058] | 69.11 % DMSO |
| CC(C)OCc1cc(CN2CCCCC2)c(O)c2ncccc12 [compound 1102] | 68.56 % DMSO |
| CC(=O)NC(c1ccc(C)cc1)c1ccc2cccnc2c1O (centres unmarked) [compound 1024] | 95.15 % DMSO |
| Oc1c(C(Nc2ccccn2)c2ccc(Cl)c(Cl)c2)ccc2cccnc12 (centres unmarked) [compound 1082] | 56.92 % DMSO |
| Oc1c(C(Nc2ccccn2)c2cccc(Cl)c2Cl)ccc2cccnc12 (centres unmarked) [compound 1006] | 69.78 % DMSO |
| CC(=O)NC(c1ccc(C(C)C)cc1)c1ccc2cccnc2c1O (centres unmarked) [compound 1030] | 73.78 % DMSO |
| COc1ccc(C(NC(=O)C2CCCCC2)c2cc([N+](=O)[O-])c3cccnc3c2O)cc1OC (centres unmarked) [compound 1072] | 78.35 % DMSO |
| O=C(CCc1ccccc1)NC(c1ccc2c(c1)OCO2)c1ccc2cccnc2c1O (centres unmarked) [compound 1065] | 61.72 % DMSO |
| COCc1cc(CN2CCCC2)c(O)c2ncccc12 [compound 1097] | 78.08 % DMSO |
| Oc1c(CN2CCN(c3cccc(Cl)c3)CC2)cc(Br)c2cccnc12 [compound 1002] | 57.70 % DMSO |
| O=C(NC(c1ccc2c(c1)OCO2)c1cc([N+](=O)[O-])c2cccnc2c1O)C1CCCCC1 (centres unmarked) [compound 1068] | 61.20 % DMSO |
| Oc1c(C(Nc2ccccn2)c2ccc(OC3CCCC3)cc2)ccc2cccnc12 (centres unmarked) [compound 1004] | 54.71 % DMSO |
| CCCCC(=O)NC(c1cccs1)c1cc([N+](=O)[O-])c2cccnc2c1O (centres unmarked) [compound 1063] | 85.12 % DMSO |
| Oc1c(C(Nc2ccccn2)c2ccccc2Br)ccc2cccnc12 (centres unmarked) [compound 1007] | 68.00 % DMSO |
| CCCC(=O)NC(c1ccc(O)c(OCC)c1)c1cc([N+](=O)[O-])c2cccnc2c1O (centres unmarked) [compound 1036] | 73.28 % DMSO |
| COc1ccc(C(NC(=O)C(C)C)c2cc([N+](=O)[O-])c3cccnc3c2O)cc1 (centres unmarked) [compound 1073] | 80.10 % DMSO |
| CC(C)C(=O)NC(c1ccc(Cl)cc1Cl)c1ccc2cccnc2c1O (centres unmarked) [compound 1042] | 55.51 % DMSO |
| CCCC(=O)NC(c1cccs1)c1cc([N+](=O)[O-])c2cccnc2c1O (centres unmarked) [compound 1048] | 70.37 % DMSO |
| Cc1ccnc(NC(c2cccc(Br)c2)c2ccc3ccc(C)nc3c2O)c1 (centres unmarked) [compound 1083] | 74.39 % DMSO |
| Cc1ccc(S(=O)(=O)Nc2ccc(O)c3ncccc23)cc1 [compound 1091] | 94.30 % DMSO |
| COc1cc(C(Nc2ccccn2)c2ccc3cccnc3c2O)cc(Br)c1OC (centres unmarked) [compound 1005] | 64.80 % DMSO |
| Cc1ccc2ccc(C(Nc3ccccn3)c3cccc([N+](=O)[O-])c3)c(O)c2n1 (centres unmarked) [compound 1078] | 67.66 % DMSO |
| Cc1ccc2ccc(C(Nc3ccccn3)c3ccccc3Br)c(O)c2n1 (centres unmarked) [compound 1477] | 76.49 % DMSO |
| CCN(CC)Cc1ccc(O)c2ncccc12 [compound 1096] | 67.13 % DMSO |

| Compound | Average Cell Viability after 24 Hours (% DMSO) |
| --- | --- |
| Oc1c(Br)cc(Br)c2cccnc12 [compound 1019] | 35.74 % DMSO |
| CCCCC(=O)NC(c1cccs1)c1cc(Cl)c2cccnc2c1O (centres unmarked) [compound 1067] | 49.62 % DMSO |
| COCc1cc(CN2CCCCC2)c(O)c2ncccc12 [compound 1098] | 68.58 % DMSO |
| CCC(=O)NC(c1ccc(N(C)C)cc1)c1ccc2cccnc2c1O (centres unmarked) [compound 1001] | 44.55 % DMSO |
| CCN1CCN(Cc2ccc3cccnc3c2O)CC1 [compound 1089] | 89.98 % DMSO |
| O=[N+]([O-])c1cc(CN2CCN(c3ccccc3)CC2)c(O)c2ncccc12 [compound 1029] | 32.00 % DMSO |
| CC(C)C(=O)NC(c1ccc(C(C)C)cc1)c1cc(Cl)c2cccnc2c1O (centres unmarked) [compound 1062] | 60.77 % DMSO |
| CCCCC(=O)NC(c1ccccc1Cl)c1cc([N+](=O)[O-])c2cccnc2c1O (centres unmarked) [compound 1031] | 76.88 % DMSO |
| CCCCC(=O)NC(c1ccccc1OC)c1cc([N+](=O)[O-])c2cccnc2c1O (centres unmarked) [compound 1027] | 62.71 % DMSO |
| Oc1c(C(Nc2ccccn2)c2c(Cl)cccc2Cl)ccc2cccnc12 (centres unmarked) [compound 1009] | 68.59 % DMSO |
| Oc1c(Cl)cc(Cl)c2cccnc12 [compound 1020] | 25.10 % DMSO |
| CCCCC(=O)NC(/C=C/c1ccccc1)c1cc([N+](=O)[O-])c2cccnc2c1O (centres unmarked) [compound 1069] | 80.34 % DMSO |
| O=S1(=O)CCC(N2COc3c(cc(Cl)c4cccnc34)C2)C1 (centres unmarked) [compound 1462] | 62.26 % DMSO |
| CCCCC(=O)NC(c1ccc(OC)cc1)c1cc([N+](=O)[O-])c2cccnc2c1O (centres unmarked) [compound 1040] | 61.11 % DMSO |
| CN1CCN(Cc2cc(COCc3ccccc3)c3cccnc3c2O)CC1 [compound 1003] | 73.53 % DMSO |
| CC1CCN(Cc2cc(COC(C)C)c3cccnc3c2O)CC1 [compound 1103] | 58.35 % DMSO |
| CCC(=O)NC(c1ccc(OC)c(OC)c1)c1cc(Cl)c2cccnc2c1O (centres unmarked) [compound 1032] | 75.67 % DMSO |
| CCCOCc1cc(CN2CCN(C)CC2)c(O)c2ncccc12 [compound 1101] | 76.69 % DMSO |
| CCC(=O)NC(c1ccc(C)cc1)c1cc([N+](=O)[O-])c2cccnc2c1O (centres unmarked) [compound 1049] | 65.63 % DMSO |
| CCOCc1cc(CN2CCCCC2)c(O)c2ncccc12 [compound 1099] | 64.22 % DMSO |
| CC(C)C(=O)NC(c1ccccc1)c1cc([N+](=O)[O-])c2cccnc2c1O (centres unmarked) [compound 1479] | 68.20 % DMSO |
| O=C(NC(c1ccc(Cl)cc1)c1ccc2cccnc2c1O)C1CCCCC1 (centres unmarked) [compound 1045] | 60.30 % DMSO |
| CCC(=O)NC(c1ccccc1Cl)c1cc(Cl)c2cccnc2c1O (centres unmarked) [compound 1041] | 72.82 % DMSO |
| CCC(=O)NC(c1ccco1)c1cc(Cl)c2cccnc2c1O (centres unmarked) [compound 1039] | 72.76 % DMSO |
| Oc1c(C(Nc2ccccc2Cl)c2ccccn2)ccc2cccnc12 (centres unmarked) [compound 1095] | 56.93 % DMSO |
| CC(C)C(=O)NC(c1ccco1)c1ccc2cccnc2c1O (centres unmarked) [compound 1087] | 72.33 % DMSO |
